This is an account of results in patent EP0758883B1, “FUSOGENIC LIPOSOMES AND METHODS OF MAKING AND USING SAME” (THE LIPOSOME COMPANY, INC., priority 1994, dated 1995).

Data set [1] is described as follows: TNS fluorescence titration for ionizable lipid pKa in liposomal bilayers. As to conditions: aminolipid incorporated into liposomes; for % Charged at pH 7.5: from TNS fluorescence titrations.
Data set [2] in a line: Lipid-mixing fusion assay (RET fluorescent probe dilution), EPC/DOPE/Chol liposomes. The settings on record: for fusogenic capacity (fusion rate): 5 mole % of each aminolipid in EPC/DOPE/Chol (35:20:45) liposomes, Figure 9, in words. On the procedure:
(§1) Fusion was monitored by the decrease in resonance energy transfer (RET) resulting from fluorescent probe dilution, as described by Struck et al. (1981). […] The external buffer was 20 mM HEPES (150 mM NaCl, pH 7.5). […] Labeled and unlabeled liposomes were mixed in a 1:3 ratio, and diluted to 0.2 mM total lipid. External buffer was exchanged for 300 mM sucrose, 1 mM citrate, pH 4.0, on Sephadex G-25 columns before diluting preparations to 10 mM lipid. For fusion assays, 20 µl of fluorescently labeled liposomes, and 60 µl unlabeled liposomes, were added to 3.92 ml of 20 mM HEPES, 150 mM NaCl, pH 7.5. After 5 min. of incubation at room temperature, a 3 ml aliquot was added to a cuvette, and the fluorescence was monitored over 5 minutes. Excitation and emission wavelengths were 465 and 535 nm, respectively, and an emission 530 nm cutoff filter was used. To dissipate the gradient and induce fusion, ammonium acetate was added to a final concentration of 100 mM at 30 seconds. The percent change in fluorescence (% F/ Fmax) was determined by assigning zero fluorescence (F0) to a trace with no ammonium acetate added and Fmax to a trace measured after adding 100 µl of 25 mM Triton X-100, so that: % ( F/ Fmax ) = 100 x ((F-F0 )/(Fmax -F0 )) [formula]
To study the effect of aminolipid structure on the fusion of EPC/Chol/DOPE liposomes (35:20:45) liposomes were prepared with 5 mole % of the indicated aminolipid (AL-1-AL-6), an internal pH 4.0, 300 mM sodium citrate buffer, and an external 20 mM HEPES buffer (150 mM NaCl, pH 7.5). Fusion assays were carried out as described above.
(§2) Membrane fusion was monitored by a loss in RET between the fluorescently labeled lipids NBD-PE and Rh-PE. When liposomes containing both of these labels fuse with unlabeled liposomes, the resulting dilution of the fluorescent probes gives Increased fluorescence for NBD-PE.

The nature of data set [3]: Lipid-mixing fusion assay (RET fluorescent probe dilution), EPC/Chol liposomes. The settings on record: plateau after dissipation of the pH gradient with 100 mM ammonium acetate, complete mixing would give 80%. The protocol:
as §1, with “To dissipate the gradient and induce fusion, ammonium acetate was added to a final concentration of 100 mM at 30 seconds.” left out, “[formula] […]” for “[formula]”
as §2

Data set [4] in a line: Lipid asymmetry (transbilayer distribution) by TNS fluorescence. Type of data set: physicochemical. The settings on record: 10 mole % in EPC/Chol (55:45), internal pH 4, external pH 7.5; after four minutes.

Take `CCCCCCCC/C=C\CCCCCCCC(=O)OCC(CN(C)C)OC(C)=O` (racemic) [AL-3]: in data set [1], the “fraction of neutral species at pH 7.5” value was found to be 16% and the “% Charged at pH 7.5” value is 16%. The “fusogenic capacity (fusion rate)” value in data set [2] was “substantially greater fusion rate”.
`CCCCCCCCCC(=O)OCC(CN(C)C)OC(=O)CCCCCCCCC` (racemic) [AL-6, ±-1,2-didecanoyl-1-N,N-dimethylamino propane]: the “% Charged at pH 7.5” value in data set [1] was 17%. For the same compound, the “fusogenic capacity (fusion rate)” value in data set [2] is recorded as “only limited mixing”.
In the same order, the values of `CCCCCCCC/C=C\CCCCCCCC(=O)OCC(CN(C)C)OC(=O)CCCCCCCCC` (racemic) [AL-5] are 14% and “further increases in the fusion rate”.
With `CCCCCCCC/C=C\CCCCCCCC(=O)OCC(CN(C)C)OC(=O)CCC` (racemic) [AL-4], the “% Charged at pH 7.5” value in data set [1] stood at 13%. Also, the “fusogenic capacity (fusion rate)” value in data set [2] was “further increases in the fusion rate”.
Regarding `CCCCCCCC/C=C\CCCCCCCC(=O)OCC(CN(C)C)OC(=O)CCCCCCC/C=C\CCCCCCCC` (racemic) [AL-1, 1-N,N-dimethylamino dioleoyl propane], the ΔF/ΔFmax in data set [3] (10 mole % AL-1 in EPC/Chol (55:45)) is recorded as roughly 3%; in data set [3] (20 mole % AL-1 in EPC/Chol (55:45)) it was roughly 3%; in data set [2] (10 mole % AL-1 in EPC/DOPE/Chol (30:25:45), over 5 minutes after dissipation of the pH gradient) it was roughly 10%; in data set [2] (10 mole % AL-1 in EPC/DOPE/Chol (35:20:45), after 5 minutes), “over 5%”; in data set [2] (about 5 mole % AL-1 in EPC/DOPE/Chol (35:20:45), over the first 5 minutes after dissipation of the pH gradient) it was “greater than 10%”. For the same compound, in data set [1], the “fraction of neutral species at pH 7.5” value turned out to be 11%. Also, the “% Charged at pH 7.5” value in data set [1] amounted to 11%. Besides, in data set [4], the “aminolipid moved to the inner monolayer” value is “virtually all”.
As for `CCCCCCCC/C=C\CCCCCCCC(=O)OCC(O)CN(C)C` (racemic) [AL-2, ±-1-oleoyl-2-hydroxy-3-N,N-dimethylamino propane], the “% Charged at pH 7.5” value in data set [1] stood at 54%. The “fusogenic capacity (fusion rate)” value in data set [2] is on record as “little Increase in liposome fusion”.
